Data published in patent US8299111B2, “Compounds which modulate the CB2 receptor” (Boehringer Ingelheim International GmbH, priority 2006, dated 2012).

Each molecule was assayed against T1, human CB2R (Homo sapiens, UniProt P34972) (assay: CB2R mediated modulation of cAMP synthesis). Details: found through the use of the above described assays (binding and cAMP); CHO cells expressing human CB2R, forskolin-stimulated cAMP.
T1 construct: host or cells: CHO cells
Format: cell-based
How it was run: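 CHO cells expressing human CB2R were treated for 30 min at 37 °C with compound in buffer containing 1 mM IBMX, 0.25% BSA and 10 uM forskolin. cAMP was measured after lysis. EC50 is the concentration giving 50% inhibition of forskolin-stimulated cAMP, scaled to the level set by 1 uM CP55940, fitted by four-parameter logistic.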

T1 sequence (P34972 whole entry): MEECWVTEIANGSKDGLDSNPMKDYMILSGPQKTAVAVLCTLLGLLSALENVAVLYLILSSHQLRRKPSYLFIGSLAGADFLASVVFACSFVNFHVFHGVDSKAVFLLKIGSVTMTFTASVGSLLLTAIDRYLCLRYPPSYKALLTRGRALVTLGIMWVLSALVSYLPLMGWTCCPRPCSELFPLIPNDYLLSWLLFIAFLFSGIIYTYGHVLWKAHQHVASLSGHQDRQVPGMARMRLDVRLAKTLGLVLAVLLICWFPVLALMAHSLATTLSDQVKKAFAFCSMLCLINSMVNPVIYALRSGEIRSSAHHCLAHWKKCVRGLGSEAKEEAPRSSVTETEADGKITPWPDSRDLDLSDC

SMILES	agonistic activity
CC(C)(C)c1cc(NC(=O)C(C)(C)S(=O)(=O)c2ccc(Br)cc2)no1 [2-(4-Bromo-benzenesulfonyl)-N-(5-tert-butyl-isoxazol-3-yl)-2-methyl-propionamide]	agonistic activity
CC(C)(C)c1cc(NC(=O)C(C)(C)S(=O)(=O)c2cccs2)no1 [N-(5-tert-Butyl-isoxazol-3-yl)-2-methyl-2-(thiophene-2-sulfonyl)-propionamide]	agonistic activity
CC(C)(C)c1nc(NC(=O)C(C)(C)S(=O)(=O)c2ccc(Cl)cc2)sc1C#N [N-(4-tert-butyl-5-cyano-1,3-thiazol-2-yl)-2-[(4-chlorophenyl)sulfonyl]-2-methylpropanamide]	agonistic activity
CC(C)(C(=O)Nc1nc(-c2ccccc2)ns1)S(=O)(=O)c1ccc(Cl)cc1 [2-(4-Chloro-benzenesulfonyl)-2-methyl-N-(3-phenyl-[1,2,4]thiadiazol-5-yl)-propionamide]	agonistic activity
CC(C)(C(=O)Nc1cc(-c2ccccc2)no1)S(=O)(=O)c1ccc(Cl)cc1 [2-(4-Chloro-benzenesulfonyl)-2-methyl-N-(3-phenyl-isoxazol-5-yl)-propionamide]	agonistic activity
CCCc1cc(NC(=O)C(C)(C)S(=O)(=O)c2ccc(Cl)cc2)on1 [2-(4-Chloro-benzenesulfonyl)-2-methyl-N-(3-propyl-isoxazol-5-yl)-propionamide]	agonistic activity
COc1ccc(S(=O)(=O)C(C)(C)C(=O)Nc2cc(C(C)(C)C)on2)cc1F [N-(5-tert-Butyl-isoxazol-3-yl)-2-(3-fluoro-4-methoxy-benzenesulfonyl)-2-methyl-propionamide]	agonistic activity
CC(C)(C(=O)Nc1nc(C(F)(F)F)cs1)S(=O)(=O)c1ccccc1 [2-Benzenesulfonyl-2-methyl-N-(4-trifluoromethyl-thiazol-2-yl)-propionamide]	agonistic activity
CC(C)(C)c1cc(NC(=O)C(C)(C)S(=O)(=O)c2ccc(Cl)cc2F)no1 [N-(5-tert-Butyl-isoxazol-3-yl)-2-(4-chloro-2-fluoro-benzenesulfonyl)-2-methyl-propionamide]	agonistic activity
CC(C)(C)c1cc(NC(=O)C(C)(C)S(=O)(=O)c2ccc(C(F)(F)F)cn2)no1 [N-(5-tert-Butyl-isoxazol-3-yl)-2-methyl-2-(5-trifluoromethyl-pyridine-2-sulfonyl)-propionamide]	agonistic activity
O=C(Nc1ccc(C(F)(F)F)cn1)C1(S(=O)(=O)c2ccc(C(F)(F)F)cc2)CCOCC1 [4-(4-Trifluoromethyl-benzenesulfonyl)-tetrahydro-pyran-4-carboxylic acid (5-trifluoromethyl-pyridin-2-yl)-amide]	agonistic activity
CC(C)(C)c1cc(NC(=O)C(C)(C)S(=O)(=O)c2ccccn2)no1 [N-(5-tert-Butyl-isoxazol-3-yl)-2-methyl-2-(pyridine-2-sulfonyl)-propionamide]	agonistic activity
CC(C)(C(=O)Nc1ccc(F)c(C(F)(F)F)c1)S(=O)(=O)c1ccc(Cl)cc1 [2-[(4-chlorophenyl)sulfonyl]-N-[4-fluoro-3-(trifluoromethyl)phenyl]-2-methylpropanamide]	agonistic activity
CC(C)(C)c1cc(NC(=O)C(C)(C)S(=O)(=O)c2ccc(C#N)cc2)no1 [N-(5-tert-Butyl-isoxazol-3-yl)-2-(4-cyano-benzenesulfonyl)-2-methyl-propionamide]	agonistic activity
CC(C)(C)c1cc(NC(=O)C(C)(C)S(=O)(=O)c2ccsc2)no1 [N-(5-tert-Butyl-isoxazol-3-yl)-2-methyl-2-(thiophene-3-sulfonyl)-propionamide]	agonistic activity
CC(C)(C(=O)Nc1nc(-c2cccnc2)cs1)S(=O)(=O)c1ccc(F)cc1F [2-(2,4-Difluoro-benzenesulfonyl)-2-methyl-N-(4-pyridin-3-yl-thiazol-2-yl)-propionamide]	agonistic activity
CC(C)c1cnc(NC(=O)C(C)(C)S(=O)(=O)c2ccc(Cl)cc2)s1 [2-(4-Chloro-benzenesulfonyl)-N-(5-isopropyl-thiazol-2-yl)-2-methyl-propionamide]	agonistic activity

The next lines start with the values.

agonistic activity	SMILES
agonistic activity	Cn1nc(C2CCCC2)cc1NC(=O)C(C)(C)S(=O)(=O)c1ccc(Cl)cc1 [2-(4-Chloro-benzenesulfonyl)-N-(5-cyclopentyl-2-methyl-2H-pyrazol-3-yl)-2-methyl-propionamide]
agonistic activity	O=C(Nc1ccc(C(F)(F)F)cn1)C1(S(=O)(=O)c2ccc(Cl)cc2)CC1 [1-(4-Chloro-benzenesulfonyl)-cyclopropanecarboxylic acid (5-trifluoromethyl-pyridin-2-yl)-amide]
agonistic activity	CC(C)(C)c1nnc(NC(=O)C(C)(C)S(=O)(=O)c2ccc(Cl)cc2F)s1 [N-(5-tert-butyl-1,3,4-thiadiazol-2-yl)-2-[(4-chloro-2-fluorophenyl)sulfonyl]-2-methylpropanamide]
agonistic activity	CC(C)(C)c1cc(NC(=O)C(C)(C)S(=O)(=O)c2ccc(F)c(Cl)c2)no1 [N-(5-tert-Butyl-isoxazol-3-yl)-2-(3-chloro-4-fluoro-benzenesulfonyl)-2-methyl-propionamide]
agonistic activity	COc1ccc(S(=O)(=O)C(C)(C)C(=O)Nc2cc(-c3ccccc3)nn2C)cc1 [2-(4-Methoxy-benzenesulfonyl)-2-methyl-N-(2-methyl-5-phenyl-2H-pyrazol-3-yl)-propionamide]
agonistic activity	CC(C)(C(=O)Nc1ccc(C(F)(F)F)cn1)S(=O)(=O)c1ccc(F)cc1 [2-(4-Fluoro-benzenesulfonyl)-2-methyl-N-(5-trifluoromethyl-pyridin-2-yl)-propionamide]
agonistic activity	Cc1cnc(NC(=O)C(C)(C)S(=O)(=O)c2ccc(C(F)(F)F)cc2)s1 [2-Methyl-N-(5-methyl-thiazol-2-yl)-2-(4-trifluoromethyl-benzenesulfonyl)-propionamide]
agonistic activity	CC(C)(C(=O)Nc1nc2c(s1)CCCC2)S(=O)(=O)c1ccc(Cl)cc1 [2-(4-Chloro-benzenesulfonyl)-2-methyl-N-(4,5,6,7-tetrahydro-benzothiazol-2-yl)-propionamide]
agonistic activity	CC(C)(C(=O)Nc1nc2ccccc2o1)S(=O)(=O)c1ccc(C(F)(F)F)nc1 [N-1,3-benzoxazol-2-yl-2-methyl-2-{[6-(trifluoromethyl)pyridin-3-yl]sulfonyl}propanamide]
agonistic activity	Cn1nc(C(C)(C)C)cc1NC(=O)C1(S(=O)(=O)c2ccc(Cl)cc2)CC1 [1-(4-Chloro-benzenesulfonyl)-cyclopropanecarboxylic acid (5-tert-butyl-2-methyl-2H-pyrazol-3-yl)-amide]
agonistic activity	CC(C)(C(=O)Nc1nc2ccccc2o1)S(=O)(=O)c1ccc(Cl)cc1F [N-1,3-benzoxazol-2-yl-2-[(4-chloro-2-fluorophenyl)sulfonyl]-2-methylpropanamide]
agonistic activity	CC(C)(C(=O)Nc1cccc(C(F)(F)F)n1)S(=O)(=O)c1ccc(Cl)cc1 [2-(4-Chloro-benzenesulfonyl)-2-methyl-N-(6-trifluoromethyl-pyridin-2-yl)-propionamide]
agonistic activity	CC(C)(C(=O)Nc1cccc2ccccc12)S(=O)(=O)c1ccc(Cl)cc1 [2-(4-Chloro-benzenesulfonyl)-2-methyl-N-naphthalen-1-yl-propionamide]
agonistic activity	CCc1sc(NC(=O)C(C)(C)S(=O)(=O)c2ccc(Cl)cc2)nc1-c1ccccc1 [2-(4-Chloro-benzenesulfonyl)-N-(5-ethyl-4-phenyl-thiazol-2-yl)-2-methyl-propionamide]
agonistic activity	CC(C)(C(=O)Nc1ccc(Oc2ccccc2)nc1)S(=O)(=O)c1ccc(Cl)cc1 [2-(4-Chloro-benzenesulfonyl)-2-methyl-N-(6-phenoxy-pyridin-3-yl)-propionamide]
agonistic activity	CC(C)(C(=O)Nc1cnc2ccccc2c1)S(=O)(=O)c1ccc(Cl)cc1F [2-[(4-chloro-2-fluorophenyl)sulfonyl]-2-methyl-N-quinolin-3-ylpropanamide]
agonistic activity	Cn1nc(-c2ccccc2)cc1NC(=O)C1(S(=O)(=O)c2ccc(Cl)cc2)CC1 [1-(4-Chloro-benzenesulfonyl)-cyclopropanecarboxylic acid (2-methyl-5-phenyl-2H-pyrazol-3-yl)-amide]
agonistic activity	CC(C)(C(=O)Nc1cc(C(F)(F)F)ccn1)S(=O)(=O)c1ccc(F)cc1F [2-[(2,4-difluorophenyl)sulfonyl]-2-methyl-N-[4-(trifluoromethyl)pyridin-2-yl]propanamide]
agonistic activity	COc1ccc(S(=O)(=O)C(C)(C)C(=O)Nc2cc(C(C)(C)C)on2)cn1 [N-(5-tert-Butyl-isoxazol-3-yl)-2-(6-methoxy-pyridine-3-sulfonyl)-2-methyl-propionamide]
agonistic activity	CC(C)(C(=O)Nc1ccc(C(F)(F)F)c(F)c1)S(=O)(=O)c1ccc(Cl)cc1 [2-[(4-chlorophenyl)sulfonyl]-N-[3-fluoro-4-(trifluoromethyl)phenyl]-2-methylpropanamide]
agonistic activity	CC(C)(C(=O)Nc1cc2ccccc2cn1)S(=O)(=O)c1ccc(C(F)(F)F)nc1 [N-isoquinolin-3-yl-2-methyl-2-{[6-(trifluoromethyl)pyridin-3-yl]sulfonyl}propanamide]
